Several values for one entry are separate records, joined by “and”; a condition that tells them apart may be missing. Identical values can stand only once. Like-named read-outs stand apart in the source and are kept apart here.
Key:
C. elegans = C. elegans motor phenotype scoring on solid media (Punc/jerky-unc, coiled, paralyzed), wild-type young adults; format: in vivo, Caenorhabditis elegans; settings: for atypical locomotion (number of animals) / coiled (number of animals) / no phene (number of animals) / paralyzed (number of animals): young adults, 20 animals per trial; for EC50: Caenorhabditis elegans, any motor phenotype after 1 h on solid media, ± 95% CI, read-out: C. elegans - motor disruption EC50
rat VAChT = molecular target: T1, rat VAChT (Rattus norvegicus, UniProt Q62666); assay: [3H]Vesamicol competitive radioligand binding, PC12 cells expressing ratVAChT
T1 construct: expressed in transfected cells; host or cells: rat PC12 (PC12 A123.7) cells, stably transfected; shared by Dr. Ali Roghani (Texas Tech University)
T1 sequence (Q62666 1-530): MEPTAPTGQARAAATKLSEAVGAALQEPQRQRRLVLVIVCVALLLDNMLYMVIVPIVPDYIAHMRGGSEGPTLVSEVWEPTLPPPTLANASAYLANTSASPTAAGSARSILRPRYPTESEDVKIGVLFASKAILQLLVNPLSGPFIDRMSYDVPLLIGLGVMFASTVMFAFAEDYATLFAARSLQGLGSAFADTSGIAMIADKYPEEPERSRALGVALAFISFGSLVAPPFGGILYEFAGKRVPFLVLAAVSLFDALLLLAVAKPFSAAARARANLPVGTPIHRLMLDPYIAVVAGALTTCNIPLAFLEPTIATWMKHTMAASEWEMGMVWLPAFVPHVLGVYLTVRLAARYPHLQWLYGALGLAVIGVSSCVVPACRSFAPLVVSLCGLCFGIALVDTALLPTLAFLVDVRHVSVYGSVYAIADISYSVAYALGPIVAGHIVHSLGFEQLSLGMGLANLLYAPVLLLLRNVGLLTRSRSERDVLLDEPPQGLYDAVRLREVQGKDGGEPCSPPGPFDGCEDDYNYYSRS

[1] = system: Dirofilaria immitis microfilariae; assay: Dirofilaria immitis microfilariae immobility assay (DiroImager, 72 h); settings: for % effect (motility), DIROIM MF: Dirofilaria immitis microfilariae
How it was run: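 Motility read after 72 h drug exposure with an image-based high-throughput plate imager, 1% DMSO medium serving as negative control. Missouri-isolate microfilariae, roughly 250 per well, freshly purified and cultured in supplemented RPMI 1640.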

[2] = system: Dirofilaria immitis L3/L4; assay: Dirofilaria immitis L3/L4 motility assay (DiroImager, 72 h); settings: for % effect (motility), DIROIM L4: Dirofilaria immitis L4
Pristionchus pacificus = Pristionchus pacificus motor disruption dose-response on solid media, 1 h; settings: for mean % any phene (coiled, jerky-Unc or paralyzed): Pristionchus pacificus young adults; for mean % any phene (coiled, jerky-Unc or paralyzed) / mean % any phene: mean of three biological replicates; for EC50: Pristionchus pacificus, 1 h, read-out: P. pacificus motor disruption EC50; for mean % any phene: any phenotype (coiled, jerky-Unc or paralyzed) at one hour; for rep 1 atypical locomotion / rep 1 coiled / rep 1 no phene / rep 1 paralyzed / rep 2 atypical locomotion / rep 2 coiled / rep 2 no phene / rep 2 paralyzed / rep 3 atypical locomotion / rep 3 coiled / rep 3 no phene / rep 3 paralyzed: count of 20 animals per trial, one hour
[3] = 3.75uM, one hour, mean of three biological replicates
[4] = 3.75uM, one hour, single replicate counts
[5] = 15uM, one hour, single replicate counts
[6] = 60uM, one hour, single replicate counts
[7] = [3H]Vesamicol displacement, mean, read-out: ratVAChT Ki
[8] = 3.75uM, one hour, single technical replicate
[9] = 15uM, one hour, single technical replicate
[10] = 60uM, one hour, single technical replicate

CC1CCC(N2CCN(c3ccc([N+](=O)[O-])cc3)CC2)CC1 (stereo not shown) [Nemacol-5]
any phene, mean % fraction of young adults exhibiting any phenotype (coiled, jerky-Unc or paralyzed) (C. elegans; [3]): 3.333%
atypical locomotion (number of animals) (C. elegans; [4]): 0 and 3 and 1
coiled (number of animals) (C. elegans; [4]): 0
no phene (number of animals) (C. elegans; [4]): 20 and 17 and 19
paralyzed (number of animals) (C. elegans; [4]): 0
any phene, mean % fraction of young adults exhibiting any phenotype (coiled, jerky-Unc or paralyzed) (C. elegans; 15uM, one hour, mean of three biological replicates): 97.5%
atypical locomotion (number of animals) (C. elegans; [5]): 9 and 12 and 13
coiled (number of animals) (C. elegans; [5]): 10 and 6 and 5 and 4
no phene (number of animals) (C. elegans; [5]): 0 and 3
paralyzed (number of animals) (C. elegans; [5]): 1 and 2 and 0 and 3 and 5
any phene, mean % fraction of young adults exhibiting any phenotype (coiled, jerky-Unc or paralyzed) (C. elegans; 60uM, one hour, mean of three biological replicates): 100%
atypical locomotion (number of animals) (C. elegans; [6]): 1 and 3 and 0 and 2 and 16 and 15
coiled (number of animals) (C. elegans; [6]): 16 and 12 and 14 and 13 and 0
no phene (number of animals) (C. elegans; [6]): 0
paralyzed (number of animals) (C. elegans; [6]): 3 and 5 and 6 and 4
EC50 (C. elegans): 7.3 ± 3.8 µM
Ki (rat VAChT; [7]): 3.76e-07 M
% effect (motility), DIROIM MF ([1]; 0.08 µM): 0%
% effect (motility), DIROIM MF ([1]; 0.4 µM): 0%
% effect (motility), DIROIM MF ([1]; 2 µM): 20%
% effect (motility), DIROIM MF ([1]; 10 µM): 80%
% effect (motility), DIROIM MF ([1]; 50 µM): 100%
EC50 ([1]; Dirofilaria immitis, 72 h, read-out: Dirofilaria immitis filariae EC50): 4.5 µM
% effect (motility), DIROIM L4 ([2]; 0.016 µM): 5%
% effect (motility), DIROIM L4 ([2]; 0.08 µM): 0%
% effect (motility), DIROIM L4 ([2]; 0.4 µM): 0%
% effect (motility), DIROIM L4 ([2]; 2 µM): 10%
% effect (motility), DIROIM L4 ([2]; 10 µM): 100%
% effect (motility), DIROIM L4 ([2]; 50 µM): 100%
activity against D. immitis (EC50) ([2]; either D. immitis assay of Fig. 4c): low micromolar activity
mean % any phene (coiled, jerky-Unc or paralyzed) (Pristionchus pacificus; conc 3.75, observed at one hour): 0%
mean % any phene (coiled, jerky-Unc or paralyzed) (Pristionchus pacificus; conc 15, observed at one hour): 15%
mean % any phene (coiled, jerky-Unc or paralyzed) (Pristionchus pacificus; conc 60, observed at one hour): 100%
EC50 (Pristionchus pacificus): 16.5 µM

c1ccc(N2CCN(CC3CCCC3)CC2)cc1 [Nemacol-62]
atypical locomotion (number of animals) (C. elegans; [8]): 0 and 2
coiled (number of animals) (C. elegans; [8]): 0 and 1
no phene (number of animals) (C. elegans; [8]): 20 and 17 and 18
paralyzed (number of animals) (C. elegans; [8]): 0
any phene: mean % fraction of young adults exhibiting any phenotype (coiled, jerky-Unc or paralyzed) (C. elegans; [3]): 4.167%
atypical locomotion (number of animals) (C. elegans; [9]): 13 and 10 and 6 and 17
coiled (number of animals) (C. elegans; [9]): 0 and 1 and 4 and 3
no phene (number of animals) (C. elegans; [9]): 5 and 8 and 13 and 10 and 0
paralyzed (number of animals) (C. elegans; [9]): 2 and 0 and 4
atypical locomotion (number of animals) (C. elegans; [10]): 0 and 4 and 2 and 1
coiled (number of animals) (C. elegans; [10]): 12 and 8 and 15 and 17 and 7 and 5
no phene (number of animals) (C. elegans; [10]): 0
paralyzed (number of animals) (C. elegans; [10]): 8 and 3 and 2 and 9 and 14
EC50 (C. elegans): 11.2 ± 4.4 µM
Ki (rat VAChT; [3H]Vesamicol binding, PC12, experiment 1, read-out: expt 1 Ki (M) vs. rat VAChT (PC12)): 2.34e-06 M
Ki (rat VAChT; [3H]Vesamicol binding, PC12, experiment 2, read-out: expt 2 Ki (M) vs. rat VAChT (PC12)): 3.34e-06 M
Ki (rat VAChT; [3H]Vesamicol binding, rat VAChT (PC12), mean of 2-3 experiments, read-out: mean Ki): 2.84e-06 M
Ki (rat VAChT; [7]): 2.84e-06 M
% effect (motility), DIROIM MF ([1]; 0.016 µM): 0%
% effect (motility), DIROIM MF ([1]; 0.08 µM): 0%
% effect (motility), DIROIM MF ([1]; 0.4 µM): 0%
% effect (motility), DIROIM MF ([1]; 2 µM): 0%
% effect (motility), DIROIM MF ([1]; 10 µM): 0%
% effect (motility), DIROIM L4 ([2]; 10 µM): 5%
% effect (motility), DIROIM L4 ([2]; 50 µM): 11%
EC50 (Pristionchus pacificus): 35.2 ± 7.5 µM
mean % any phene (Pristionchus pacificus; conc 3.75): 0%
rep 1 atypical locomotion (Pristionchus pacificus; conc 3.75): 0
rep 1 coiled (Pristionchus pacificus; conc 3.75): 0
rep 1 no phene (Pristionchus pacificus; conc 3.75): 20
rep 1 paralyzed (Pristionchus pacificus; conc 3.75): 0
rep 2 atypical locomotion (Pristionchus pacificus; conc 3.75): 0
rep 2 coiled (Pristionchus pacificus; conc 3.75): 0
rep 2 no phene (Pristionchus pacificus; conc 3.75): 20
rep 2 paralyzed (Pristionchus pacificus; conc 3.75): 0
rep 3 atypical locomotion (Pristionchus pacificus; conc 3.75): 0
rep 3 coiled (Pristionchus pacificus; conc 3.75): 0
rep 3 no phene (Pristionchus pacificus; conc 3.75): 20
rep 3 paralyzed (Pristionchus pacificus; conc 3.75): 0
mean % any phene (Pristionchus pacificus; conc 15): 3.333%
rep 1 coiled (Pristionchus pacificus; conc 15): 0
rep 1 no phene (Pristionchus pacificus; conc 15): 20 and 19
rep 1 paralyzed (Pristionchus pacificus; conc 15): 0
rep 2 atypical locomotion (Pristionchus pacificus; conc 15): 2 and 1
rep 2 coiled (Pristionchus pacificus; conc 15): 0
rep 2 no phene (Pristionchus pacificus; conc 15): 18 and 19
rep 2 paralyzed (Pristionchus pacificus; conc 15): 0
rep 3 atypical locomotion (Pristionchus pacificus; conc 15): 0
rep 3 coiled (Pristionchus pacificus; conc 15): 0
rep 3 no phene (Pristionchus pacificus; conc 15): 20
rep 3 paralyzed (Pristionchus pacificus; conc 15): 0
mean % any phene (Pristionchus pacificus; conc 60): 89.1667%
rep 1 atypical locomotion (Pristionchus pacificus; conc 60): 5 and 6
rep 1 paralyzed (Pristionchus pacificus; conc 60): 11 and 9
rep 2 atypical locomotion (Pristionchus pacificus; conc 60): 14 and 15
rep 2 coiled (Pristionchus pacificus; conc 60): 2 and 3
rep 2 no phene (Pristionchus pacificus; conc 60): 0
rep 2 paralyzed (Pristionchus pacificus; conc 60): 4 and 2
rep 3 atypical locomotion (Pristionchus pacificus; conc 60): 15 and 13
rep 3 no phene (Pristionchus pacificus; conc 60): 5 and 3

— publication PMC10066365, “Nemacol is a small molecule inhibitor of C. elegans vesicular acetylcholine transporter with anthelmintic potential” (Nature Communications, 2023)
